Activity calls are given as the source filed them. No cut-off for these calls is given here.
Key:
[1] = system: RAW264.7; experiment: Induction of apoptosis in mouse RAW264.7 cells assessed as necrotic cells at 1 uM after 48 hrs by Annexin V-FITC/PI based flow cytometric analysis (RVB=0.26%); format: functional
[2] = system: RAW264.7; experiment: Inhibition of colony formation in mouse RAW264.7 cells assessed as reduction in colony single area at 0.1 to 1 uM incubated for 72 hrs by crystal violet staining method; format: functional, cell-based; settings: dose 0.1-1 µM
[3] = system: MDA-MB-231; experiment: Cytotoxicity against human MDA-MB-231 cells assessed as inhibition of cell growth incubated for 72 hrs by MTT assay; format: functional, cell-based; settings: MDA-MB-231, 72 h
[4] = Acute toxicity in C57BL/6J mouse assessed as safety concern at 1000 to 5000 mg/kg measured after 14 days; format: organism-based; settings: in vivo, 336 h, dose 1000-5000 mg/kg, time 14 day
[5] = system: RAW264.7; experiment: Induction of cell cycle arrest in mouse RAW264.7 cells assessed as accumulation of cells in S phase at 0.5 uM incubated for 24 hrs by PI/RNase staining based flow cytometric analysis (RVB = 34.03%); format: functional
[6] = system: RAW264.7; experiment: Induction of apoptosis in mouse RAW264.7 cells assessed as late apoptotic cells at 0.5 uM after 48 hrs by Annexin V-FITC/PI based flow cytometric analysis (RVB=0.098%); format: functional
[7] = system: RAW264.7; experiment: Induction of apoptosis in mouse RAW264.7 cells assessed as late apoptotic cells at 1 uM after 48 hrs by Annexin V-FITC/PI based flow cytometric analysis (RVB=0.098%); format: functional
[8] = system: RAW264.7; experiment: Induction of apoptosis in mouse RAW264.7 cells assessed as early apoptotic cells at 0.1 uM after 48 hrs by Annexin V-FITC/PI based flow cytometric analysis (RVB=5.57%); format: functional
[9] = system: RAW264.7; experiment: Induction of cell cycle arrest in mouse RAW264.7 cells assessed as accumulation of cells in S phase at 0.1 uM incubated for 24 hrs by PI/RNase staining based flow cytometric analysis (RVB = 34.03%); format: functional
[10] = system: RAW264.7; experiment: Induction of apoptosis in mouse RAW264.7 cells assessed as early apoptotic cells at 0.25 uM after 48 hrs by Annexin V-FITC/PI based flow cytometric analysis (RVB=5.57%); format: functional
[11] = system: RAW264.7; experiment: Induction of cell cycle arrest in mouse RAW264.7 cells assessed as accumulation of cells in G2 phase at 0.25 uM incubated for 24 hrs by PI/RNase staining based flow cytometric analysis (RVB = 10.90%); format: functional

CCc1nc2c(C)cc(-c3ccc(CN4CCN(CCO)CC4)cc3)cn2c1NC(=O)OCc1cc(Cl)cc(Cl)c1
Activity [1]: 0.83%
inhibition [2]: Active
IC50 [3]: 3.29 µM
Activity [4]: Non-Toxic
Activity [5]: 4.78%
Activity [6]: 0.95%
Activity [7]: 0.74%
Activity [8]: 6.04%
Activity [9]: 25.72%
Activity [10]: 6%
Activity [11]: 70.82%

Source: ChEMBL document CHEMBL5154876, “Design, synthesis and promising anti-tumor efficacy of novel imidazo[1,2-a]pyridine derivatives as potent autotaxin allosteric inhibitors” (Eur J Med Chem, 2022)
